Data taken from ChEMBL document CHEMBL1156321, “Oxime esters as selective, covalent inhibitors of the serine hydrolase retinoblastoma-binding protein 9 (RBBP9)” (Bioorg Med Chem Lett, 2010).
The source made the active and inactive calls. No cut-off for these calls is given here.

Key:
[1] = target: T1, Serine hydrolase RBBP9 (Homo sapiens, UniProt O75884); assay: Displacement of fluorophosphate-rhodamine from RBBP9 transfected in human HEK293T cells proteomes at 20 uM after 30 mins by SDS-PAGE gel fluorescence assay; assay type: cell-based; settings: HEK-293T
Target sequence in this assay (O75884 whole entry, looked up): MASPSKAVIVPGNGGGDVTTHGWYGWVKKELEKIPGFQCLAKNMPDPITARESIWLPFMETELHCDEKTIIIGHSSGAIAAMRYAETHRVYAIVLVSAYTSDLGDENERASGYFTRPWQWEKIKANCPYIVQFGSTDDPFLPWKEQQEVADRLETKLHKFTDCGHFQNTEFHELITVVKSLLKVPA

[2] = target: T1, Serine hydrolase RBBP9; assay: Displacement of fluorophosphate-rhodamine from RBBP9 transfected in human HEK293T cells proteomes after 30 mins by SDS-PAGE gel fluorescence assay; assay type: cell-based, HEK-293T
Target sequence in this assay (O75884 whole entry): as the sequence (O75884 whole entry, looked up) above

[3] = target: T1, Serine hydrolase RBBP9; assay: Displacement of fluorophosphate-rhodamine from RBBP9 transfected in human HEK293T cells proteomes at 7.9 uM after 30 mins by SDS-PAGE gel fluorescence assay; assay type: cell-based; settings: HEK-293T
Target sequence in this assay (O75884 whole entry, looked up): as above

[4] = target: T1, Serine hydrolase RBBP9; assay: Displacement of phenylsulphonate-rhodamine from RBBP9 transfected in human MDA-MB-231 cells proteomes after 30 mins by SDS-PAGE gel fluorescence assay; assay type: cell-based
Target sequence in this assay (O75884 whole entry, looked up): as above

[5] = target: T1, Serine hydrolase RBBP9; assay: Displacement of fluorophosphate-rhodamine from recombinant RBBP9 transfected in mouse brain membrane proteomes at 200 uM after 30 mins by SDS-PAGE gel fluorescence assay; assay type: cell membranes
Target sequence in this assay (O75884 whole entry, looked up): as above

[6] = target: T2, Glutathione S-transferase omega-1 (Homo sapiens) (UniProt P78417); assay: Displacement of phenylsulphonate-rhodamine from GSTO1 in human MDA-MB-231 cells proteomes at 20 uM after 30 mins by SDS-PAGE gel fluorescence assay; assay type: cell-based
T2 sequence (whole entry): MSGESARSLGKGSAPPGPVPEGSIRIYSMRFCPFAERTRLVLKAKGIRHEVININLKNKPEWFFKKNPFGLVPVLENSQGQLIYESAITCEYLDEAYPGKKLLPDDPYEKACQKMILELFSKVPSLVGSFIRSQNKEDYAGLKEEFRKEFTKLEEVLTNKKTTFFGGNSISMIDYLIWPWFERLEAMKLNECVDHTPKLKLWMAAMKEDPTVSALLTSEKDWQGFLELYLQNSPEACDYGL

[7] = target: T1, Serine hydrolase RBBP9; assay: Displacement of fluorophosphate-rhodamine from recombinant RBBP9 transfected in mouse brain membrane proteomes after 30 mins by SDS-PAGE gel fluorescence assay; assay type: cell membranes
Target sequence in this assay (O75884 whole entry): as the sequence (O75884 whole entry, looked up) above

| inhibition [1] | Structure (SMILES) | further results |
| --- | --- | --- |
| 46% | C/C(=N\OC(=O)c1cccc(C(F)(F)F)c1)c1nccs1 |  |
| 78% | C/C(=N\OC(=O)c1ccc(Cl)cc1)c1nccs1 | IC50 [2]: 1900 nM; inhibition [3]: 80%; inhibition [4]: inactive; Activity [5]: inactive |
| 62% | C/C(=N\OC(=O)c1ccccc1)c1nccs1 |  |
| 76% | COc1ccc(C(=O)O/N=C2/C=C(C)C(=O)C=C2C)cc1 |  |
| 4% | C/C(=N\OC(=O)c1ccc(-c2ccccc2)cc1)c1nccs1 |  |
| 66% | C/C(=N\OC(=O)c1ccc(I)cc1)c1nccs1 |  |
| 78% | CC1=CC(=NOC(=O)/C=C/c2ccccc2)C=C(C)C1=O | IC50 [2]: 1200 nM; inhibition [3]: 79%; inhibition [6]: Active |
| 14% | C/C(=N\OC(=O)c1c(-c2c(F)cccc2Cl)noc1C)c1nccs1 |  |
| 91% | C/C(=N\OC(=O)C1CCCCC1)c1nccs1 | IC50 [2]: 640 nM |
| 0% | CC(=O)O/N=C(\C)c1nccs1 |  |
| 93% | COc1ccc(C(=O)ON=C2C=C(C)C(=O)C(C)=C2)cc1 | IC50 [2]: 1500 nM; IC50 [7]: 1500 nM |
|  | CC[C@H]1CN2CCc3cc(OC)c(OC)cc3[C@@H]2C[C@@H]1CC1NCCc2cc(OC)c(OC)cc21 (single isomer, unassigned) [EMETINE] | IC50 ([2]; hek-293t): 7800 nM |
| 76% | C/C(=N\OC(=O)c1ccc(F)cc1)c1nccs1 | IC50 [2]: 5700 nM |
| 8% | C/C(=N\OC(=O)c1c(-c2c(Cl)cccc2Cl)noc1C)c1nccs1 |  |
| 66% | C/C(=N\OC(=O)c1cc(F)ccc1F)c1nccs1 |  |
| 48% | COc1ccc(C(=O)ON=C2C(C)=CC(=O)C=C2C)cc1 |  |
| 17% | C/C(=N\OC(=O)c1c(-c2ccccc2Cl)noc1C)c1nccs1 |  |
| 42% | C/C(=N\OC(=O)/C=C/c1ccccc1)c1nccs1 |  |
| 60% | COc1ccc(C(=O)O/N=C(\C)c2nccs2)cc1 | IC50 [2]: 9200 nM; inhibition [3]: 39%; inhibition [4]: inactive |
| 42% | C#CCCC(=O)O/N=C(\C)c1nccs1 |  |
| 15% | C/C(=N\OC(=O)c1ccc([N+](=O)[O-])cc1)c1nccs1 |  |
| 63% | C/C(=N\OC(=O)c1cccc(Cl)c1)c1nccs1 |  |
| 64% | C/C(=N\OC(=O)c1ccccc1F)c1nccs1 |  |

| Structure (SMILES) | inhibition [1] | further results |
| --- | --- | --- |
| C/C(=N\OC(=O)N1CCCCC1)c1nccs1 | 0% |  |
